pIC50: −log10 of the molar value.
Biological target: T1, human capsaicin receptor (Homo sapiens, UniProt Q8NER1)
T1 construct: expressed in transfected cells
Assay: Calcium mobilization assay, antagonist activity (Example 6)
Type: cell-based
Conditions: Table II; 50% decrease in fluorescence response of cells expressing human capsaicin receptor exposed to capsaicin
Procedure, shortened: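 Stable HEK293 clones expressing full-length human receptor, loaded with Fluo-3 in KRH buffer pH 7.4. Test compounds at 1 μM to 5 μM final preincubated 0.5 to 6 hours at room temperature, then challenged with capsaicin at its EC50; IC50 is 50% decrease in FLIPR calcium response.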

T1 sequence (Q8NER1 whole entry): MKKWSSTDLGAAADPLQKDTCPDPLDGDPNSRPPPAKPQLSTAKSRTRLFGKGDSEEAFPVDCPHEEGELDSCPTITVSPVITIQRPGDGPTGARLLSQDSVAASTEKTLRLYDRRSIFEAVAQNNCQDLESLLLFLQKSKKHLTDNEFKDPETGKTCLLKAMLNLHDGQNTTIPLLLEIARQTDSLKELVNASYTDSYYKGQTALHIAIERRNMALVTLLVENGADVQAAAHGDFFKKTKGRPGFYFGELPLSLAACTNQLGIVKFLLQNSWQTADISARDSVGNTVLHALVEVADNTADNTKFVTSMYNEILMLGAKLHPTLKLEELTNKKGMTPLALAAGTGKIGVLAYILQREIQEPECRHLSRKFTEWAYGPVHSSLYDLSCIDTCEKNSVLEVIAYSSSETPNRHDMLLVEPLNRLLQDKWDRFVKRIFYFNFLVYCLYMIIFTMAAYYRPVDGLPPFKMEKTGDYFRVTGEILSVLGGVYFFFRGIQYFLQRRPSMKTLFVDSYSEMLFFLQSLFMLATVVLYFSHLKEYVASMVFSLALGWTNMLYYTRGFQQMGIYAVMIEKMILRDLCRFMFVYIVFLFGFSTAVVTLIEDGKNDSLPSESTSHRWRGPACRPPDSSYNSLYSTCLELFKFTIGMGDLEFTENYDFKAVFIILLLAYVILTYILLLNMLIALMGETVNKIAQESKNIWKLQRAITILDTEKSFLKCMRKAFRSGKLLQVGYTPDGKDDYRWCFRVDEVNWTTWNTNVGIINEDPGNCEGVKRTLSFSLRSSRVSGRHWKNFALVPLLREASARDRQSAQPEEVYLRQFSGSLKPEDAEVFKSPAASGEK

pIC50, ≥ 6.00:
C=C(C)CN(CC)Cc1nc(NCCc2ccccc2)c2ccc(-c3ncccc3C(F)(F)F)cc2n1 [Compound 154, [2-{[Ethyl-(2-methyl-allyl)-amino]-methyl}-7-(3-trifluoromethyl-pyridin-2-yl)-quinazolin-4-yl]-phenethyl-amine]
C=C(C)CN(CC)Cc1nc(NCCc2ccccc2C)c2ccc(-c3ncccc3C(F)(F)F)cc2n1 [Compound 155, [2-{[Ethyl-(2-methyl-allyl)-amino]-methyl}-7-(3-trifluoromethyl-pyridin-2-yl)-quinazolin-4-yl]-(2-o-tolyl-ethyl)-amine]
Cc1ccccc1CCNc1nc(CN(C)C2CCCCC2)nc2cc(-c3ncccc3C(F)(F)F)ccc12 [Compound 158, [2-[(Cyclohexyl-methyl-amino)-methyl]-7-(3-trifluoromethyl-pyridin-2-yl)-quinazolin-4-yl]-(2-o-tolyl-ethyl)-amine]
CCN(Cc1nc(NCCc2ccccc2C)c2ccc(-c3ncccc3C(F)(F)F)cc2n1)C1CCCCC1 [Compound 164, [2-[(Cyclohexyl-ethyl amino)-methyl]-7-(3-trifluoromethyl-pyridin-2-yl)-quinazolin-4-yl]-(2-o-tolyl-ethyl)-amine]
COCCN(CCOC)Cc1nc(NCCc2ccccc2C)c2ccc(-c3ncccc3C(F)(F)F)cc2n1 [Compound 168, [2-{[Bis-(2-methoxy-ethyl)-amino]-methyl}-7-(3 trifluoromethyl-pyridin-2-yl)-quinazolin-4-yl]-(2-o-tolyl-ethyl)-amine]
CCCCCN(CCCCC)Cc1nc(NCCc2ccccc2C)c2ccc(-c3ncccc3C(F)(F)F)cc2n1 [Compound 171, [2-Dipentylaminomethyl-7-(3-trifluoromethyl-pyridin-2-yl)-quinazolin-4-yl]-(2-o-tolyl-ethyl)-amine]
CCCCCN(CCCCC)Cc1nc(NCCc2ccccc2Cl)c2ccc(-c3ncccc3C(F)(F)F)cc2n1 [Compound 172, [2-(2-Chloro-phenyl)-ethyl]-[2-dipentylaminomethyl-7-(3-trifluoromethyl-pyridin-2-yl)-quinazolin-4-yl]-amine]
CCCCCCN(CCCCCC)Cc1nc(NCCc2ccccc2)c2ccc(-c3ncccc3C(F)(F)F)cc2n1 [Compound 173, [2-Dihexylaminomethyl-7-(3-trifluoromethyl-pyridin-2-yl)-quinazolin-4-yl]-phenethyl-amine]
CCCCCCN(CCCCCC)Cc1nc(NCCc2ccccc2C)c2ccc(-c3ncccc3C(F)(F)F)cc2n1 [Compound 174, [2-Dihexylaminomethyl-7-(3-trifluoromethyl-pyridin-2-yl)-quinazolin-4-yl]-(2-o-tolyl-ethyl)-amine]
CCCCCCN(CCCCCC)Cc1nc(NCCc2ccccc2Cl)c2ccc(-c3ncccc3C(F)(F)F)cc2n1 [Compound 175, [2-(2-Chloro-phenyl)-ethyl]-[2-dihexylaminomethyl-7-(3-trifluoromethyl-pyridin-2-yl)-quinazolin-4-yl]-amine]
CC1CC(C)CN(Cc2nc(NCCc3ccccc3)c3ccc(-c4ncccc4C(F)(F)F)cc3n2)C1 (stereo not shown) [Compound 176, [2-(3,5-Dimethyl-piperidin-1-ylmethyl)-7-(3-trifluoromethyl-pyridin-2-yl)-quinazolin-4-yl]-phenethyl-amine]
Cc1ccccc1CCNc1nc(CN2CC(C)CC(C)C2)nc2cc(-c3ncccc3C(F)(F)F)ccc12 (stereo not shown) [Compound 177, [2-(3,5-Dimethyl-piperidin-1-ylmethyl)-7-(3-trifluoromethyl-pyridin-2-Yl)-quinazolin-4-yl]-(2-o-tolyl-ethyl)-amine]
CC1CC(C)CN(Cc2nc(NCCc3ccccc3Cl)c3ccc(-c4ncccc4C(F)(F)F)cc3n2)C1 (stereo not shown) [Compound 178, [2-(2-Chloro-phenyl)-ethYl]-[2-(3,5-dimethyl-piperidin-1-ylmethyl)-7-(3-trifluoromethyl-pyridin-2-yl)-quinazolin-4-yl]-amine]

From patent publication US20070219203A1, “Arylalkylamino-substituted quinazoline analogues” (Neurogen Corporation, priority 2004, published 2007)
